Experimental findings from ChEMBL document CHEMBL1121905, “erythro-5-[1-Hydroxy-2-(isopropylamino)butyl]-7-hydroxycarbostyril, a terbutaline-type derivative of the bronchodilator procaterol” (1981) are described below.

The term ED50 denotes the dose at which the effect has come halfway, by size or by number of responders.

For experiment [1], the species on record is Cavia porcellus. Kind of experiment: Compound was tested for effective dose required for 25% of maximum response in guinea pig right atrium.
For experiment [2], the species on record is Cavia porcellus. Nature of the experiment: Intrinsic activity (n=5) in guinea pig right atrium.
The species named for experiment [3] is Cavia porcellus. Kind of experiment: Intrinsic activity in guinea pig trachea. Type of experiment: functional.
For experiment [4], the species on record is Cavia porcellus. Kind of experiment: Compound was tested for effective dose required for 50% of maximum response in guinea pig trachea. Type of experiment: functional. The note with it: read-out: ED50 (the source's name).
For experiment [5], the system named is Canis familiaris. Kind of experiment: Compound was tested in anesthetized dogs for increase in heart rate (equipotent dose at ED25) Mean ED25 value, obtained at a dose of 0.021 ug/kg. Format: functional. The settings on record: Canis lupus familiaris.
Experiment [6] concerns Canis familiaris. Kind of experiment: Compound was tested in anesthetized dogs for inhibition of bronchoconstriction (equipotent dose at ED50) Mean ED50 value, obtained at a dose of 0.054 ug/kg. Type of experiment: functional. The settings on record: Canis lupus familiaris, Lung.
For experiment [7], the species on record is Cavia porcellus. Kind of experiment: Compound was tested for effective dose required for 25% of maximum response in guinea pig right atrium; maximal activity was obtained at 1 x 10 e-5 mol/L.

Regarding `CCC(NC(C)C)C(O)c1cc(O)cc2c1CCC(=O)N2` (configuration not stated), the ED25 in the experiment filed under Cavia porcellus [1] was 566 nM. Further, the Intrinsic activity in the experiment filed under Cavia porcellus [2] is listed as 0.27; in the experiment listed under Cavia porcellus [3], 0.6. In the experiment filed under Cavia porcellus [4], the EC50 turned out to be 1220 nM.

Molecule `CC(C)NCC(O)c1ccc(O)c(O)c1` (configuration not stated) [ISOPROTERENOL] registered an ED25 in the experiment on Canis familiaris [5] of 0.001 mg/kg. In the experiment on Canis familiaris [6], this molecule came in with an ED50 of 0.001 mg/kg.

Take `CC(C)(C)NCC(O)c1cc(O)cc(O)c1` (configuration not stated) [TERBUTALINE]: the Intrinsic activity in the experiment filed under Cavia porcellus [2] is 0.73; in the experiment listed under Cavia porcellus [3], 0.7.

Consider `CCC(NC(C)C)C(O)c1cc(O)cc2nc(O)ccc12` (configuration not stated), for which the ED25 result was “maximal activity was obtained at 1 x 10 e-5 mol/L” in the experiment listed under Cavia porcellus [7] and 0.0871 mg/kg in the experiment on Canis familiaris [5]. Besides, the Intrinsic activity in the experiment filed under Cavia porcellus [3] is listed as 0.5. The same molecule gave an ED50 with Canis familiaris [6] of 0.0417 mg/kg. Also, in the experiment listed under Cavia porcellus [4], the EC50 amounted to 225 nM.

For `CCC(NC(C)C)C(O)c1ccc(O)c2[nH]c(=O)ccc12` (configuration not stated) [PROCATEROL], the ED25 in the experiment listed under Cavia porcellus [1] is 5.7 nM. The Intrinsic activity amounted to 0.6 in the experiment listed under Cavia porcellus [2] and 0.98 in the experiment filed under Cavia porcellus [3]. The EC50 in the experiment listed under Cavia porcellus [4] was found to be 11 nM.
